Data set [1] has as its target T1, MMP-1 (Homo sapiens, UniProt P03956).
T1 sequence (P03956 100-469): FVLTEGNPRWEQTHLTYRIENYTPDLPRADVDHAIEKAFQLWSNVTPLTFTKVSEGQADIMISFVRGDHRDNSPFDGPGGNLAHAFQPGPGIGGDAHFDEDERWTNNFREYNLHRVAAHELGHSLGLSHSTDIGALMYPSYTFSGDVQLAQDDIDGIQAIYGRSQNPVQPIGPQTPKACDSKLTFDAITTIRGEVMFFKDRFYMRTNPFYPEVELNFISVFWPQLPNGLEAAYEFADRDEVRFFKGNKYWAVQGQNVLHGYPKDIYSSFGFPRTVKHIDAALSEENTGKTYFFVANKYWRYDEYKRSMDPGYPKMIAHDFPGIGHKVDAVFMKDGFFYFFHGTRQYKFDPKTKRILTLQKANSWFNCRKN
As to conditions: read-out: MMP-1 IC50.

In another data set the target is TACE (Homo sapiens, UniProt P78536). The experiment in a line: TACE inhibition (fluorescent peptidyl substrate). The class given is biochemical.
Chain of TACE (P78536 215-824): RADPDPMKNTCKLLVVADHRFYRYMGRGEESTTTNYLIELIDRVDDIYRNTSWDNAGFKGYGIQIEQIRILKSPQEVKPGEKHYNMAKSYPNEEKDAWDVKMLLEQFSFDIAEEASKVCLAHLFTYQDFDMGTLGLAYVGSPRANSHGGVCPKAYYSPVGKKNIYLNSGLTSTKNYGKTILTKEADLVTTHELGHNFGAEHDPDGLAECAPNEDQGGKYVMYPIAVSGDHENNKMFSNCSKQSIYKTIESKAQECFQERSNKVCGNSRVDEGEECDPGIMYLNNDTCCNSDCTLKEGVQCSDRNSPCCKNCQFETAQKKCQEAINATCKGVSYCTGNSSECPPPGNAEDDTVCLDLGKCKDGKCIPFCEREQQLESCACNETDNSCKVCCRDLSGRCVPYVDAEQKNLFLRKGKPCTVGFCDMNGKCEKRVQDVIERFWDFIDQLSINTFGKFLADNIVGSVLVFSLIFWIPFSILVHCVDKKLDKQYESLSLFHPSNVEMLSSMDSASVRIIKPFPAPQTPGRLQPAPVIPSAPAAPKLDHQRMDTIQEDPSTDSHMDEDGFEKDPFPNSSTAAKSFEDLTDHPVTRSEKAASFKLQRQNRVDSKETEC
The target of the next data set is MMP-9 (Homo sapiens, UniProt P14780). The experiment in a line: MMP-9 inhibition (thiopeptide or fluorescent peptide substrate). The class given is biochemical. As to conditions: read-out: MMP-9 IC50.
Chain of MMP-9 (P14780 94-707): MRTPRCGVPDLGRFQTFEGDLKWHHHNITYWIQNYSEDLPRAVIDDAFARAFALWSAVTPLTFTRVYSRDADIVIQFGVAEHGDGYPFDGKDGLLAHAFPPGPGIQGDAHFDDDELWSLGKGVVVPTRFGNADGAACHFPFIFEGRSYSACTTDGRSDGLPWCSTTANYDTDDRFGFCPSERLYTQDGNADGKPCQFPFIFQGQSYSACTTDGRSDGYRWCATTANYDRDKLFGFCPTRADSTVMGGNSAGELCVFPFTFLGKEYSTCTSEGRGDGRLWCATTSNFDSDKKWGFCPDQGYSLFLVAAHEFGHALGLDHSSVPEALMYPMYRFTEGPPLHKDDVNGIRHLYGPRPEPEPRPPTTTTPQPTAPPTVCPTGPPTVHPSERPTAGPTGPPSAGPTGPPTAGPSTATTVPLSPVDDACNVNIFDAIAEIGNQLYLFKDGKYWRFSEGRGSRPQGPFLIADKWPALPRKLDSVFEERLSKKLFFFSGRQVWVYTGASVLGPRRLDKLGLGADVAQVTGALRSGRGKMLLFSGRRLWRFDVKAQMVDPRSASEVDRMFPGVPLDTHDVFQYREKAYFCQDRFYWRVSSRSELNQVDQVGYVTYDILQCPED
Data set [2] addresses T2, MMP-13 (Homo sapiens, UniProt P45452). The experiment in a line: MMP-13 inhibition (thiopeptide or fluorescent peptide substrate). The class given is biochemical.
Procedure: (§1) The enzyme activity is measured by the rate of the color increase. The thiopeptide substrate is made up fresh as a 20 mM stock in 100% DMSO and the DTNB is dissolved in 100% DMSO as a 100 mM stock and stored in the dark at room temperature. Both the substrate and DTNB are diluted together to 1 mM with substrate buffer (50 mM HEPES pH 7.5, 5 mM CaCl2) before use. The stock of enzyme is diluted with buffer (50 mM HEPES, pH 7.5, 5 mM CaCl2, 0.02% Brij) to the desired final concentration.
(§2) Alternatively, a fluorescent peptide substrate is used. In this test procedure, the peptide substrate contains a fluorescent group and a quenching group. Upon cleavage of the substrate by an MMP, the fluorescence that is generated is quantitated on the fluorescence plate reader. The assay is run in HCBC assay buffer (50 mM HEPES, pH 7.0, 5 mM Ca^+2, 0.02% Brij, 0.5% Cysteine), with human recombinant MMP-1, MMP-9, or MMP-13. The substrate is dissolved in methanol and stored frozen in 1 mM aliquots. For the assay, substrate and enzymes are diluted in HCBC buffer to the desired concentrations. Compounds are added to the 96 well plate containing enzyme and the reaction is started by the addition of substrate.
(§3) For either the thiopeptide or fluorescent peptide test procedures, the slope of the line is calculated and represents the reaction rate. The linearity of the reaction rate is confirmed (r^2>0.85). The mean (x±sem) of the control rate is calculated and compared for statistical significance (p<0.05) with drug-treated rates using Dunnett's multiple comparison test.
Data set [3] addresses T2, MMP-13. The experiment in a line: In vivo MMP inhibition test procedure (implanted dialysis tubing containing enzyme). The arrangement: species or system rat or mouse. As to conditions: dose 25 mg/kg, p.o. vs MMP-13.
Procedure: A 2 cm piece of dialysis tubing (molecular weight cut-off 12-14,000, 10 mm flat width) containing matrix metalloproteinase enzyme (stromelysin, collagenase or gelatinase in 0.5 mL of buffer) is implanted either ip or sc (in the back) of a rat (Sprague-Dawley, 150-200 g) or mouse (CD-1, 25-50 g) under anesthesia. Drugs are administered PO, IP, SC or IV through a canula in the jugular vein. […] Contents of the dialysis tubing is collected and enzyme activity assayed.
Enzyme reaction rates for each dialysis tube are calculated. Tubes from at least 3 different animals are used to calculate the mean±sem. Statistical significance (p<0.05) of vehicle-treated animals versus drug-treated animals is determined by analysis of variance.
Data set [4] has as its target T1, MMP-1. The experiment in a line: biochemical. As to conditions: read-out: MMP-1 % inhibition.

What is called IC50 is the concentration needed to halve the response being measured. What is called melting point is the temperature of the solid-liquid transition. The term inhibition denotes the drop in the measured response relative to a control, in per cent.

Procedure for MMP-9: as §1, §2, §3
Procedure for TACE: Using 96-well black microtiter plates, each well receives a solution composed of 10 μL TACE (final concentration 1 μg/mL), 70 μL Tris buffer, pH 7.4 containing 10% glycerol (final concentration 10 mM), and 10 μL of test compound solution in DMSO (final concentration 1 μl M, DMSO concentration <1%) and incubated for 10 minutes at room temperature.
The reaction is read (excitation 340 nm, emission 420 nm) for 10 min. and the increase in fluorescence over time is plotted as a linear line. The slope of the line is calculated and represents the reaction rate.
The linearity of the reaction rate is confirmed (r^2>0.85). The mean (x±sem) of the control rate is calculated and compared for statistical significance (p<0.05) with drug-treated rates using Dunnett's multiple comparison test.

“4-[(4-Methoxy-benzenesulfonyl)-pyridin-3-ylmethyl-amino]-8-thiophen-2-yl-quinoline-3-carboxylic acid hydroxyamide [Example 41]”: the IC50 at MMP-1 [1] amounted to 136 nM.
For the compound “4-[Methyl-(4-methoxy-benzenesulfonyl)-amino]-6-phenylethyl-quinoline-3-carboxylic acid hydroxyamide [Example 35]”, the IC50 on TACE came to 49 nM; at MMP-1 [1] it was 234 nM.
On to `Cc1nsc2ncc(C(=O)NO)c(N(C)S(=O)(=O)c3ccc(Oc4ccncc4)cc3)c12` [Example 92, 4-{Methyl-[4-(4-pyridinyloxy)benzenesulfonyl]amino}-3-methylisothiazolo[5,4-b]pyridine-5-carboxylic Acid, Hydroxyamide], for which the melting point is 146 °C (dec.). In addition, the 50% inhibitory concentration (IC50) at MMP-9 was determined as 12 nM. The compound also gave an IC50 on MMP-13 [2] of 6.1 nM. Besides, the half-inhibitory concentration (IC50) at TACE was above 1640 nM. In addition, on MMP-13 [3], the “in-vivo MMP % inhibition” value is listed as 30% (25). In addition, the inhibition at 10 µM on MMP-1 [4] was determined as 60.2%.
As for “4-{[4-(4-Chlorophenyloxy)benzenesulfonyl]methylamino}-1,3-dimethyl-1H-pyrazolo[3,4-b]pyridine-5-carboxylic Acid, Hydroxyamide [Example 89]”, the values for the 50% inhibitory concentration (IC50) at MMP-9, on TACE and on MMP-1 [1] were 0.8 nM, 356 ± 15 nM and 116 nM, respectively. At MMP-13 [3], the “in-vivo MMP % inhibition” value is given as 6% (25).
For the compound “4-{Methyl-(4-(pyridin-4-yloxy)-benzenesulfonyl]-amino}-6-iodo-quinoline-3-carboxylic acid hydroxyamide hydrochloride [Example 33]”, at MMP-1 [1], the concentration for half-maximal inhibition (IC50) was determined as 1010 nM.

Source of the values: patent US6534491B2, “Preparation and use of ortho-sulfonamido bicyclic heteroaryl hydroxamic acids as matrix metalloproteinase and tace inhibitors” (priority 1996, dated 2003).
